Source: patent US20090075320A1, “Method for screening an enhancer or a masker of salty taste” (priority 2006, published 2009)

Target: T1, hENaC channel (Homo sapiens, UniProt P37088+P51168+P51170, A314G/A350T/D375G/F339S/S458R/Y369S)
T1 sequence (P37088 1-669): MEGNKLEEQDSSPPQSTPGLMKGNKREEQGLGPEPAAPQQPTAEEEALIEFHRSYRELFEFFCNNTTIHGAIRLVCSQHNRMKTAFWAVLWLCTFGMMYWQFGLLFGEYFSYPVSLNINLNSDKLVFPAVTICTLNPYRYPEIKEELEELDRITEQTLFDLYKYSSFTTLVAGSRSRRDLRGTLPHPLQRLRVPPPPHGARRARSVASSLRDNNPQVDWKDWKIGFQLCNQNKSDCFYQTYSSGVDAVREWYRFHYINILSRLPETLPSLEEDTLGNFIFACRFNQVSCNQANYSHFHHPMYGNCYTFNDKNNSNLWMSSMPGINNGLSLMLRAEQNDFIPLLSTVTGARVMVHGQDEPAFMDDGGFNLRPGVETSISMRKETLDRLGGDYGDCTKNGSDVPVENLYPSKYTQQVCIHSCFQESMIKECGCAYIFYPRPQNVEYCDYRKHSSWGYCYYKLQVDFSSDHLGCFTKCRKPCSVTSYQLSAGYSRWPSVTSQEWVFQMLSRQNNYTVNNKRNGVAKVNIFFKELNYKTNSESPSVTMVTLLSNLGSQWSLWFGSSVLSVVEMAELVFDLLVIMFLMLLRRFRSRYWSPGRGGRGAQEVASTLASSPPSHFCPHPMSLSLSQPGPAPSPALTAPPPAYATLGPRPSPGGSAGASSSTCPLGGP
T1 sequence (P51168 1-640 A314G): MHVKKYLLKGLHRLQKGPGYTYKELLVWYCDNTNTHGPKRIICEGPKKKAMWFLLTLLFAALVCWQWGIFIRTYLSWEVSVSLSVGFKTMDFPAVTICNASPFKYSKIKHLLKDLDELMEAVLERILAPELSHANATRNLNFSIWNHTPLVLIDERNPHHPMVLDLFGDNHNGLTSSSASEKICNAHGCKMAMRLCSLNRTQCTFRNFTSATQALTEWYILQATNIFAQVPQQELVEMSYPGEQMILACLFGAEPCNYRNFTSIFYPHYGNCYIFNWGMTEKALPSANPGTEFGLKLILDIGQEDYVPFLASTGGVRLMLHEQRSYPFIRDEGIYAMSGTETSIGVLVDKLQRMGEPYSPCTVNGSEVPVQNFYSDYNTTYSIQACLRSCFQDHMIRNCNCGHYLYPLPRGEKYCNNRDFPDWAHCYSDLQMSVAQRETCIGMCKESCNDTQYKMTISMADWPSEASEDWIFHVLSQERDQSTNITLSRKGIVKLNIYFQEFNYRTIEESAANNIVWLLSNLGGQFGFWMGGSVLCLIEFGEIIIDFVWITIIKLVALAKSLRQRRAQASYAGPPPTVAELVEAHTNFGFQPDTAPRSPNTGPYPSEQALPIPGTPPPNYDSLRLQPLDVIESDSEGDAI
T1 sequence (P51170 1-649 F339S/A350T/Y369S/D375G/S458R): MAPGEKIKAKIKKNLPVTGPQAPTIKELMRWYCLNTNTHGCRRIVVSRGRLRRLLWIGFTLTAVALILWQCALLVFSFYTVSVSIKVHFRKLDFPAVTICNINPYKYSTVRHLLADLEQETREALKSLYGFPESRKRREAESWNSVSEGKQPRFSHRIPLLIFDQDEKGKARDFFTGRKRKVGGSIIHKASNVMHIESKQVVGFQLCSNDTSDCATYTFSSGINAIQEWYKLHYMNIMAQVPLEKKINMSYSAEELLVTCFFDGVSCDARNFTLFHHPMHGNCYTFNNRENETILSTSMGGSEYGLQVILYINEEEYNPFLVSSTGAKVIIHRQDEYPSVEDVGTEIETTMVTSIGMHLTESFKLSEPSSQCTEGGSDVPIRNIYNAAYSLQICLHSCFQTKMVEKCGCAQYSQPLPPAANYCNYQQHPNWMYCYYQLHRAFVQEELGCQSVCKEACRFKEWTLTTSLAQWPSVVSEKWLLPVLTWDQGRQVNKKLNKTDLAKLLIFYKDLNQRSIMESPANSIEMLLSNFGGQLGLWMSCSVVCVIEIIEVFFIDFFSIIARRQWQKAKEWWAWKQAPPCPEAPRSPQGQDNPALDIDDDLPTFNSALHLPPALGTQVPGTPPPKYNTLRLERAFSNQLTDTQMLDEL
Experiment: Primary screen MP assay (membrane potential dye): dose-response curves for inhibition by hENaC blockers
Format: cell-based
Conditions: HEK293 Flp-In T-Rex hENaC cells (alpha, beta, gamma; pUR8191), loaded with MP-Blue dye for 1 hr, Flexstation; FIG. 4
Method: FIG. 4. Dose-response curve for different concentrations of the hENaC blockers amiloride, benzamil and phenamil (in M). Cells were loaded with MP-Blue dye for 1 hr and assayed in the Flexstation.
HEK293 Flp-In T-Rex hENaC cells were grown to about 80% confluency and dissociated from the culture dish with trypsin/EDTA for 1-5 minutes at 37° C. Dissociated cells were taken up in a concentration between 1×10^5 and 1×10^6 cells/ml in DMEM/Tet-free FCS/blasticidin/hygromycin medium. 100 μL of cells were added per well in a poly-L-lysine coated black well clear bottom 96-wells plate. The cells were grown overnight and then induced by addition of 100 μl DMEM/Tet-free FCS/blasticidin/hygromycin medium with doxycyclin (final conc. 0.25 μg/ml). Alternatively, in some wells amiloride was added to inhibit hENaC channel activity during induction.
After 20 to 48 hrs the medium was removed, cells were washed with buffer and subsequently loaded with MP-Blue (cat# R8042) or MP-Red (cat# R8123) dye (from Molecular Devices) according to the manufacturer's instructions for 1 hr at 37° C. The plates were subsequently loaded into the Flexstation II for fluorescence measurements. Compounds were added to the wells in different concentrations after a baseline measurement of 30 sec. […] The fluorescence values were normalized on the average value of the first five time points. […]

Row | SMILES | inhibition of the hENaC channel (rank order from dose-response curves)
1 | N=C(N)NC(=O)c1nc(Cl)c(N)nc1N [amiloride] | followed by benzamil and amiloride
2 | NC(=Nc1ccccc1)NC(=O)c1nc(Cl)c(N)nc1N [phenamil] | the best compound for inhibition
